In patent US11517568B2, “Compounds and methods for treating nematode infections” (The Governing Council of The University of Toronto, priority 2018, dated 2022):
Where two headings read alike, the source gives them in different places.

Assays:
[1] = tested on: wild type C. elegans; assay: Manual monitoring of locomotion phenotype of wild type C. elegans on solid agar containing the small molecule; type: in vivo, Caenorhabditis elegans; details: for locomotory phenotype induced: solid agar substrate
Description: The ability of the 64 Egl hits to modulate the normal sinusoidal locomotion of wild type C. elegans was then examined. The animal's behaviour over the course of several hours was manually monitored while the animal moved atop a solid agar substrate containing the small molecule. Many different genes govern the sinusoidal locomotion of wild type C. elegans, but their mutation can lead to qualitatively distinct locomotory phenotypes.

[2] = tested on: HEK293 cells; assay: HEK293 cell proliferation, Celltiter Blue Cell Viability Assay; type: cell-based; details: dose-response, 48 hours, triplicates
Experimental: A cytotoxic formulation was used as positive control. Experiments were performed in triplicates on different days. […] Error bars indicate standard deviation.

[3] = tested on: C. elegans; assay: Suppression of aldicarb-induced paralysis in C. elegans; type: in vivo; details: Caenorhabditis elegans
Experimental: Whether exemplary compound Ia can suppress the paralysis that is induced by aldicarb was tested. Aldicarb inhibits acetylcholinesterase, which normally catabolizes ACh at the synaptic cleft. […] Aldicarb treatment therefore results in excess ACh and paralyzes the animal due to excess muscle contraction. If exemplary compound Ia inhibits UNC-17 and results in lower levels of ACh at the synaptic cleft, then exemplary compound Ia should reduce aldicarb-induced paralysis.

[4] = tested on: fish; assay: Dose-response analysis in fish, cardiac defects; type: in vivo
[5] = tested on: wild type fourth-stage C. elegans larvae (L4s); assay: Locomotory defects (coiled and/or paralysis) in wild type fourth-stage C. elegans larvae on solid substrate; type: in vivo, Caenorhabditis elegans; details: for Activity (%): percent of animals that show coiled and/or paralysis: 60 μM, after 60 min on solid substrate, L4 C. elegans
Experimental: A preliminary first round of SAR analyses using analogs of exemplary compound Ia was performed and the analogs' ability to induce locomotory defects in wild type fourth-stage C. elegans larvae (L4s) was tested.
If phenotype is observed, a dose-response analysis is performed.

[6] = tested on: L3 animals; assay: Abnormal locomotory behaviour of L3 animals on solid agar (extended SAR); type: in vivo, Caenorhabditis elegans; details: for pest or weed control at 3.75 µM / pest or weed control at 15 µM / pest or weed control at 60 µM: Caenorhabditis elegans; for % any phene 1 h (conc.) 3.75 / % any phene 6 h (conc.) 3.75 / % any phene 24 h (conc.) 3.75: 3.75 uM; for % any phene 1 h (conc.) 3.75 / % any phene 1 h (conc.) 15 / % any phene 1 h (conc.) 60: 1 h exposure; for % any phene 1 h (conc.) 3.75 / % any phene 6 h (conc.) 3.75 / % any phene 24 h (conc.) 3.75 / % any phene 1 h (conc.) 15 / % any phene 6 h (conc.) 15 / % any phene 24 h (conc.) 15 / % any phene 1 h (conc.) 60 / % any phene 6 h (conc.) 60 / % any phene 24 h (conc.) 60: L3, mean of 4 replicates; for % any phene 6 h (conc.) 3.75 / % any phene 6 h (conc.) 15 / % any phene 6 h (conc.) 60: 6 h exposure; for % any phene 24 h (conc.) 3.75 / % any phene 24 h (conc.) 15 / % any phene 24 h (conc.) 60: 24 h exposure; for % any phene 1 h (conc.) 15 / % any phene 6 h (conc.) 15 / % any phene 24 h (conc.) 15: 15 uM; for % any phene 1 h (conc.) 60 / % any phene 6 h (conc.) 60 / % any phene 24 h (conc.) 60: 60 uM
Experimental: 20 animals were scored after either 1, 6 or 24 hours of exposure to drug (as indicated) per replicate. […] Data are reported as the mean % of animals with abnormal phenotype over 4 independent replicates.

[7] = tested on: C. elegans; assay: Forward genetic screens for mutants resisting early larval lethal effects; type: in vivo, Caenorhabditis elegans; details: over 200,000 F1 and over 100,000 F2 animals screened
Experimental: Forward genetic screens were performed for mutants that can resist the early larval lethal effects of compound Ic and compound Id. Over 200,000 F1 animals and over 100,000 F2 animals from randomly mutagenized parents/grandparents were screened.

[8] = tested on: UNC-17 (VAChT), unc-17 mutant strains; type: in vivo, Caenorhabditis elegans; details: p=0.001
[9] = 1 h, read-out: % any phene 1 h (conc.) 3.75
[10] = 1 h, read-out: % any phene 1 h (conc.) 15
[11] = 1 h, read-out: % any phene 1 h (conc.) 60
[12] = 6 h, read-out: % any phene 6 h (conc.) 3.75
[13] = 6 h, read-out: % any phene 6 h (conc.) 15
[14] = 6 h, read-out: % any phene 6 h (conc.) 60
[15] = 24 h, read-out: % any phene 24 h (conc.) 3.75
[16] = 24 h, read-out: % any phene 24 h (conc.) 15
[17] = 24 h, read-out: % any phene 24 h (conc.) 60

Structure (SMILES) | cardiac defects in fish [4] | Activity (%): percent of animals that show coiled and/or paralysis [5] | pest or weed control at 3.75 µM [6, 9] [%] | pest or weed control at 15 µM [6, 10] [%] | pest or weed control at 60 µM [6, 11] [%] | pest or weed control at 3.75 µM [6, 12] [%] | pest or weed control at 15 µM [6, 13] [%] | pest or weed control at 60 µM [6, 14] [%] | pest or weed control at 3.75 µM [6, 15] [%] | pest or weed control at 15 µM [6, 16] [%] | pest or weed control at 60 µM [6, 17] [%] | locomotory phenotype induced [1] | % any phene 1 h (conc.) 3.75 [6] [%] | % any phene 6 h (conc.) 3.75 [6] [%] | % any phene 24 h (conc.) 3.75 [6] [%] | % any phene 1 h (conc.) 15 [6] [%] | % any phene 6 h (conc.) 15 [6] [%] | % any phene 24 h (conc.) 15 [6] [%] | % any phene 1 h (conc.) 60 [6] [%] | % any phene 6 h (conc.) 60 [6] [%] | also measured
O=[N+]([O-])c1ccc(N2CCN(CC3CCCCC3)CC2)cc1 [Compound Ia] | weakest cardiac defects | 90% +/− 5.4 | 42.5 | 91 | 100 | 22.5 | 64.2 | 100 | 0 | 34.2 | 80 |  |  |  |  |  |  |  |  |  | potency for inducing locomotory defects in worms relative to vesamicol ([1]; compared with vesamicol): more than 30 times; effect on HEK293 cell proliferation [2]: no effect; EC50 [3]: 4.81 µM; EC50 ([5]; Caenorhabditis elegans, read-out: EC50 (coiled and/or paralysis, dose-response)): 12.8 µM
O=[N+]([O-])c1ccc(N2CCN(CC3CC4C=CC3C4)CC2)cc1 (stereo not drawn) [Compound Id] |  | 0.00% |  |  |  |  |  |  |  |  |  | ‘jerky-unc’ phenotype | 19.2 | 5.8 | 0.0 | 65.5 | 36.7 | 45.0 | 95.8 | 100.0 | mutants resisting early larval lethal effects [7]: No mutants that could resist the lethal effects; % any phene 24 h (conc.) 60 [6]: 95.8%
O=[N+]([O-])c1ccc(N2CCN(CC3CC=CCC3)CC2)cc1 (stereo not drawn) [Ie] | strongest cardiac defects | 19% +/− 8.0 |  |  |  |  |  |  |  |  |  | ‘severe’ snake-like coiler phenotype and paralysis | 15.0 | 0.0 | 0.0 | 45.0 | 56.7 | 0.0 | 94.2 | 80.8 | % any phene 24 h (conc.) 60 [6]: 57.5%
O[C@@H]1CCCC[C@H]1N1CCC(c2ccccc2)CC1 (racemic) [Vesamicol, reference compound] |  | 6% +/− 0.1 | 0 | 0 | 11.7 | 0 | 0.8 | 1.7 | 0 | 0 | 0 | jerky-unc and coiling, but only at concentrations close to its limit of solubility |  |  |  |  |  |  |  |  | sensitivity of unc-17(md414) (C370Y) mutant [8]: partially resistant
